Experimental data published in article PMC5698418 (Nature Communications, 2017).

System: Arc protein
Experiment: Western blot of total Arc protein in primary cortical neurons
Format: cell-based, mouse
Conditions: BDNF 6 h supplemented with compound
Procedure: Forebrains of E16.5 C57BL/6 mouse embryos were dissected and then dissociated in trypsin solution for 15 min followed by three washes with phosphate-buffered saline (PBS). Single-cell suspension was achieved by gentle pipet trituration. Neurons were seeded in poly-L-lysine/laminin-coated six-well plates at a density of 2 × 10^6 per well and maintained in neurobasal medium containing B27 supplement (2%, Invitrogen, Grand Island, NY), penicillin (50 units ml^−1, Invitrogen), streptomycin (50 µg ml^−1, Invitrogen), and glutamine (1 mM, Sigma). For experiments involving BDNF (EMD Millipore Corps, Billerica, MA), the stock solution (2 ng µl^−1 in water) was added directly to the culture medium at a final concentration of 100 ng ml^−1 for the indicated period of time.
For western blot analyses, cells were collected by scraping in ice-cold radioimmunoprecipitation assay (RIPA) buffer (50 mM Tris-HCl (pH 8.0), 300 mM NaCl, 0.5% Igepal-630, 0.5% deoxycholic acid, 0.1% SDS, 1 mM EDTA) supplemented with a cocktail of protease inhibitors (Complete Protease Inhibitor without EDTA, Roche Applied Science, Indianapolis, IN) and phosphatase inhibitors (phosphatase inhibitor cocktail A, Santa Cruz Biotechnology). One volume of 2× Laemmli buffer (100 mM Tris-HCl (pH 6.8), 4% SDS, 0.15% bromophenol blue, 20% glycerol, 200 mM β-mercaptoethanol) was added and the extracts were boiled for 5 min. Samples were adjusted to an equal concentration after protein concentrations were determined using the BCA assay (Pierce, Thermo Fisher Scientific). Lysates were separated using SDS–PAGE and transferred to a nitrocellulose membrane. After transfer, the membrane was blocked in TBST (Tris-buffered saline + 0.1% Tween 20) supplemented with 5% nonfat powdered milk and probed with the indicated primary antibody at 4 °C overnight. After washing with TBST, the membrane was incubated with the appropriate secondary antibody and visualized using enhanced chemiluminescence (ECL) reagents according to the manufacturer’s guidelines (Pierce, Thermo Fisher Scientific).
The following procedure was used to quantify western blots. First, equal quantity of protein lysate was analyzed by SDS–PAGE for each biological replicate. Second, the exposure time of the film to the ECL chemiluminescence was the same for each biological replicate. Third, all the exposed films were scanned on a Brother MFC-J485DW scanner in grayscale at a resolution of 300 dpi. Fourth, the look-up table (LUT) of the scanned tiff images was inverted and the intensity of each band was individually measured using the selection tool and the histogram function in Adobe Photoshop CC 2015 software. […]

Q: Which “total Arc protein vs BDNF plus vehicle control (western blot, Arc/β-actin)” value does the source give for `O=C(Nc1cccc(Br)c1)c1cccc(S(=O)(=O)N2CCCCCC2)c1` [AK-7] here?
A: Its value is “significantly more Arc protein”.
